Assay results reported in PubChem BioAssay (NCI).
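Briefly, cells in 96-well plates were exposed to five compound concentrations for 48 h, and endpoints were estimated by linear interpolation. GI50 = concentration required for 50% inhibition of growth. TGI: concentration producing complete growth inhibition.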

What was measured:
Assay in all cases: growth of human tumour cells (NCI), 48 h
[1] = test system: UACC-62 melanoma
[2] = test system: SK-MEL-28 melanoma
[3] = test system: COLO 205 colon
[4] = test system: UACC-257 melanoma
[5] = test system: NCI-H460 lung
[6] = test system: MCF7 breast
[7] = test system: SF-268 CNS
[8] = test system: BT-549 breast
[9] = test system: KM12 colon
[10] = test system: A498 renal
[11] = test system: NCI/ADR-RES ovarian
[12] = test system: HCT-116 colon
[13] = test system: SW-620 colon
[14] = test system: SK-MEL-5 melanoma
[15] = test system: HOP-92 NSCLC
[16] = test system: RXF 393 renal
[17] = test system: HCT-15 colon
[18] = test system: MDA-MB-231 breast
[19] = test system: SR leukemia
[20] = test system: OVCAR-5 ovarian
[21] = test system: LOX IMVI melanoma
[22] = test system: PC-3 prostate
[23] = test system: IGROV1 ovarian
[24] = test system: SN12C renal
[25] = test system: RPMI-8226 leukemia
[26] = test system: MDA-MB-435
[27] = test system: HOP-62 NSCLC
[28] = test system: ACHN renal
[29] = test system: MALME-3M melanoma

## COc1cc(OC)c(/C=C/S(=O)(=O)Cc2ccc(OC)c(NC(=O)CCC(=O)NO)c2)c(OC)c1
[1]
  TGI: > 100000 nM
[2]
  GI50: > 84500 nM
  TGI: > 100000 nM
[3]
  GI50: 32.9 nM
[4]
  GI50: > 100000 nM
  TGI: > 100000 nM
[5]
  GI50: 34 nM
  TGI: > 100000 nM
[6]
  GI50: 25 nM
  TGI: > 100000 nM
[7]
  GI50: 102 nM
  TGI: > 100000 nM
[8]
  GI50: 24.4 nM
  TGI: 72.4 nM
[9]
  GI50: 30.7 nM
  TGI: > 100000 nM
[10]
  GI50: < 13.4 nM
  TGI: 79.4 nM
[11]
  GI50: < 15.8 nM
  TGI: > 100000 nM
[12]
  GI50: 27.8 nM
  TGI: > 100000 nM
[13]
  GI50: 37.7 nM
  TGI: > 100000 nM
[14]
  GI50: 29.9 nM
  TGI: 256 nM
[15]
  GI50: 251 nM
  TGI: > 100000 nM
[16]
  GI50: 21.4 nM
  TGI: > 100000 nM
[17]
  GI50: 22.5 nM
  TGI: > 100000 nM
[18]
  GI50: 47.8 nM
  TGI: > 100000 nM
[19]
  GI50: 20.3 nM
  TGI: > 100000 nM
[20]
  GI50: 55 nM
  TGI: > 100000 nM
[21]
  GI50: 29.6 nM
  TGI: > 100000 nM
[22]
  GI50: 31.1 nM
  TGI: > 100000 nM
[23]
  GI50: 38.6 nM
  TGI: > 100000 nM
[24]
  GI50: 61.8 nM
  TGI: > 100000 nM
[25]
  GI50: 45.2 nM
  TGI: > 100000 nM
[26]
  TGI: 31.5 nM
[27]
  GI50: 67.5 nM
  TGI: > 100000 nM
[28]
  GI50: 33.2 nM
  TGI: > 100000 nM
[29]
  GI50: > 100000 nM
  TGI: > 100000 nM
